Test results as given in PubChem BioAssay AID330 (DTP/NCI, 2004).
“And” between values parts separate entries of the source, which are not always exact repeats. Equal entries are not always repeated. Inconclusive results and toxic doses are left out.

Test system: P388 leukemia ip, CD2F1 mice, survival T/C
Experiment: NCI In Vivo Anticancer Drug Screen. Data for tumor model P388 Leukemia (intraperitoneal) in CD2F1 (CDF1) mice
Settings: endpoint: median survival time, higher = longer survival
Procedure, shortened: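 Mice carrying the transplanted tumor received test compound or vehicle. Survival was recorded in each group, and the value is the treated-group measurement divided by that of the vehicle-treated control group.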

[1] = dose: 50.0 mg/kg/injection, schedule: Q01DX001 (ip), vehicle: saline with Tween-80
[2] = dose: 100.0 mg/kg/injection, schedule: Q01DX001 (ip), vehicle: saline with Tween-80
[3] = dose: 200.0 mg/kg/injection, schedule: Q01DX001 (ip), vehicle: saline with Tween-80
[4] = dose: 50.0 mg/kg/injection, schedule: Q01DX009 (ip), vehicle: Klucel (hydroxypropylcellulose) (HPC)
[5] = dose: 100.0 mg/kg/injection, schedule: Q01DX009 (ip), vehicle: Klucel (hydroxypropylcellulose) (HPC)
[6] = dose: 100.0 mg/kg/injection, schedule: Q04DX003 (ip), vehicle: saline with Tween-80
[7] = dose: 200.0 mg/kg/injection, schedule: Q04DX003 (ip), vehicle: saline with Tween-80
[8] = dose: 400.0 mg/kg/injection, schedule: Q04DX003 (ip), vehicle: saline with Tween-80
[9] = dose: 50.0 mg/kg/injection, schedule: Q01DX005 (ip), vehicle: Klucel (hydroxypropylcellulose) (HPC)
[10] = dose: 100.0 mg/kg/injection, schedule: Q01DX005 (ip), vehicle: Klucel (hydroxypropylcellulose) (HPC)
[11] = dose: 200.0 mg/kg/injection, schedule: Q01DX005 (ip), vehicle: Klucel (hydroxypropylcellulose) (HPC)
[12] = dose: 50.0 mg/kg/injection, schedule: Q01DX009 (ip), vehicle: saline with Tween-80
[13] = dose: 100.0 mg/kg/injection, schedule: Q01DX009 (ip), vehicle: saline with Tween-80
[14] = dose: 200.0 mg/kg/injection, schedule: Q01DX009 (ip), vehicle: saline with Tween-80
[15] = dose: 60.0 mg/kg/injection, schedule: Q01DX005 (ip), vehicle: saline with Tween-80
[16] = dose: 120.0 mg/kg/injection, schedule: Q01DX005 (ip), vehicle: saline with Tween-80
[17] = dose: 240.0 mg/kg/injection, schedule: Q01DX005 (ip), vehicle: saline with Tween-80
[18] = dose: 50.0 mg/kg/injection, schedule: Q01DX005 (ip), vehicle: saline with Tween-80
[19] = dose: 100.0 mg/kg/injection, schedule: Q01DX005 (ip), vehicle: saline with Tween-80
[20] = dose: 200.0 mg/kg/injection, schedule: Q01DX005 (ip), vehicle: saline with Tween-80

## Nc1cccc2cccc([N+](=O)[O-])c12
dose: 25.0 mg/kg/injection, schedule: Q01DX001 (ip), vehicle: saline with Tween-80
  T/C: 97 % of control
[1]
  T/C: 110 % of control
[2]
  T/C: 99 % of control
[3]
  T/C: 98 % of control

## OC1(C2NCCc3ccccc32)CCN(CCc2ccccc2)CC1 (stereo not given)
[4]
  T/C: 87 % of control
[5]
  T/C: 94 % of control

## O=c1[nH]c2ccccc2c2ccccc12
[6]
  T/C: 90 % of control
[7]
  T/C: 90 % of control
[8]
  T/C: 90 % of control

## CS(=O)(=O)CC1=NC(=N)N=C1CS(C)(=O)=O
dose: 60.0 mg/kg/injection, schedule: Q01DX005 (ip), vehicle: saline
  T/C: 100 % of control
dose: 120.0 mg/kg/injection, schedule: Q01DX005 (ip), vehicle: saline
  T/C: 110 % of control
dose: 240.0 mg/kg/injection, schedule: Q01DX005 (ip), vehicle: saline
  T/C: 96 % of control

## NNS(=O)(=O)c1cccc(S(=O)(=O)NN)c1
dose: 12.5 mg/kg/injection, schedule: Q01DX009 (ip), vehicle: other
  T/C: 96 % of control
dose: 25.0 mg/kg/injection, schedule: Q01DX009 (ip), vehicle: other
  T/C: 96 % of control
dose: 50.0 mg/kg/injection, schedule: Q01DX009 (ip), vehicle: other
  T/C: 99 % of control

## O=C(Cc1ccccc1)NC1C(=O)N2c3c(CO)cccc3OCC12 (stereo not given)
[1]
  T/C: 100 % of control
[2]
  T/C: 90 % of control
[3]
  T/C: 94 % of control

## CC1CCC2CCCCN2CO1 (stereo not given)
dose: 25.0 mg/kg/injection, schedule: Q01DX005 (ip), vehicle: Klucel (hydroxypropylcellulose) (HPC)
  T/C: 105 % of control
[9]
  T/C: 101 % of control and 122 % of control and 96 % of control
[10]
  T/C: 101 % of control and 109 % of control and 112 % of control
[11]
  T/C: 104 % of control and 114 % of control and 118 % of control

## CC1(C)CCC[C@]2(C)[C@@H](C=O)C(C=O)=CC[C@@H]12
dose: 3.12 mg/kg/injection, schedule: Q01DX005 (ip), vehicle: Klucel (hydroxypropylcellulose) (HPC)
  T/C: 102 % of control
dose: 6.25 mg/kg/injection, schedule: Q01DX005 (ip), vehicle: Klucel (hydroxypropylcellulose) (HPC)
  T/C: 103 % of control
dose: 12.5 mg/kg/injection, schedule: Q01DX005 (ip), vehicle: Klucel (hydroxypropylcellulose) (HPC)
  T/C: 106 % of control

## CC(CN(C)C)CN1c2ccccc2Sc2ccccc21 (stereo not given)
dose: 12.5 mg/kg/injection, schedule: Q04DX003 (ip), vehicle: saline with Tween-80
  T/C: 112 % of control
dose: 25.0 mg/kg/injection, schedule: Q04DX003 (ip), vehicle: saline with Tween-80
  T/C: 115 % of control
dose: 33.0 mg/kg/injection, schedule: Q04DX003 (ip), vehicle: saline with Tween-80
  T/C: 123 % of control
dose: 50.0 mg/kg/injection, schedule: Q04DX003 (ip), vehicle: saline with Tween-80
  T/C: 117 % of control

## O=C(CBr)N(O)c1ccccc1OCc1ccccc1
dose: 6.25 mg/kg/injection, schedule: Q01DX001 (ip), vehicle: saline
  T/C: 116 % of control
dose: 12.5 mg/kg/injection, schedule: Q01DX001 (ip), vehicle: saline
  T/C: 98 % of control
dose: 25.0 mg/kg/injection, schedule: Q01DX001 (ip), vehicle: saline
  T/C: 104 % of control

## O=C(NCc1ccccc1)c1ccc([N+](=O)[O-])cc1
[12]
  T/C: 87 % of control
[13]
  T/C: 95 % of control
[14]
  T/C: 95 % of control
dose: 400.0 mg/kg/injection, schedule: Q01DX009 (ip), vehicle: saline with Tween-80
  T/C: 91 % of control

## COc1ccc(C(=O)/C=C/c2ccc(OC)c(OC)c2OCc2ccccc2)c(O)c1
dose: 100.0 mg/kg/injection, schedule: Q01DX001 (ip), vehicle: Klucel (hydroxypropylcellulose) (HPC)
  T/C: 94 % of control
dose: 200.0 mg/kg/injection, schedule: Q01DX001 (ip), vehicle: Klucel (hydroxypropylcellulose) (HPC)
  T/C: 88 % of control

## CCC(c1ccccc1)(c1ccccc1)c1ccccc1
[6]
  T/C: 98 % of control
[7]
  T/C: 100 % of control
[8]
  T/C: 94 % of control

## COc1cc([N+](=O)[O-])ccc1N=Cc1ccc(C=Nc2ccc([N+](=O)[O-])cc2OC)cc1
[4]
  T/C: 95 % of control and 96 % of control
[5]
  T/C: 86 % of control and 96 % of control
dose: 200.0 mg/kg/injection, schedule: Q01DX009 (ip), vehicle: Klucel (hydroxypropylcellulose) (HPC)
  T/C: 96 % of control

## CC1(C)CNC(=S)N1Cc1ccccc1
dose: 50.0 mg/kg/injection, schedule: Q01DX009 (ip), vehicle: suspension in saline
  T/C: 100 % of control
dose: 100.0 mg/kg/injection, schedule: Q01DX009 (ip), vehicle: suspension in saline
  T/C: 94 % of control
dose: 200.0 mg/kg/injection, schedule: Q01DX009 (ip), vehicle: suspension in saline
  T/C: 100 % of control

## Cc1cc2c(cc1C)NC1=C(N2)OC(c2ccc(Cl)cc2)C1=O (stereo not given)
[15]
  T/C: 92 % of control
[16]
  T/C: 89 % of control
[17]
  T/C: 92 % of control

## CCC(Cl)C#N (stereo not given)
dose: 7.5 mg/kg/injection, schedule: Q01DX005 (ip), vehicle: saline with Tween-80
  T/C: 106 % of control
dose: 15.0 mg/kg/injection, schedule: Q01DX005 (ip), vehicle: saline with Tween-80
  T/C: 100 % of control

## CCCCN1C(=O)C(=C/C=C/C=C2\Oc3ccccc3N2CCCS(=O)(=O)O)C(=O)N(CCCC)C1=S
dose: 60.0 mg/kg/injection, schedule: Q01DX005 (ip), vehicle: Klucel (hydroxypropylcellulose) (HPC)
  T/C: 106 % of control
dose: 120.0 mg/kg/injection, schedule: Q01DX005 (ip), vehicle: Klucel (hydroxypropylcellulose) (HPC)
  T/C: 106 % of control
dose: 240.0 mg/kg/injection, schedule: Q01DX005 (ip), vehicle: Klucel (hydroxypropylcellulose) (HPC)
  T/C: 106 % of control

## O=C(OCC(Cl)(Cl)Cl)N1[C@@H]2C=C[C@@H](N1C(=O)OCC(Cl)(Cl)Cl)[C@@]13CC(OCc4ccc(Br)cc4)CC21O3 (stereo not given in full)
[9]
  T/C: 105 % of control
[10]
  T/C: 95 % of control
[11]
  T/C: 95 % of control

## CC(C)N=C(C1=C(O)c2ccccc2C1=O)c1ccccc1
dose: 25.0 mg/kg/injection, schedule: Q04DX002 (ip), vehicle: saline with Tween-80
  T/C: 100 % of control
dose: 50.0 mg/kg/injection, schedule: Q04DX002 (ip), vehicle: saline with Tween-80
  T/C: 104 % of control
dose: 100.0 mg/kg/injection, schedule: Q04DX002 (ip), vehicle: saline with Tween-80
  T/C: 100 % of control

## CCCCCC1SCC(=O)N1c1nncs1 (stereo not given)
[15]
  T/C: 106 % of control
[16]
  T/C: 103 % of control
[17]
  T/C: 113 % of control

## COC(=O)C1CC=CCC1C(=O)O (stereo not given)
[12]
  T/C: 93 % of control
[13]
  T/C: 95 % of control
[14]
  T/C: 99 % of control

## COCC1(COC)CCN(C2CC(O[C@H]3C[C@](O)(C(C)=O)Cc4c(O)c5c(c(O)c43)C(=O)c3c(OC)cccc3C5=O)OC(C)C2O)CC1 (stereo not given in full)
dose: 1.56 mg/kg/injection, schedule: Q04DX003 (ip), vehicle: water
  T/C: 103 % of control
dose: 3.12 mg/kg/injection, schedule: Q04DX003 (ip), vehicle: water
  T/C: 110 % of control and 113 % of control
dose: 12.5 mg/kg/injection, schedule: Q04DX003 (ip), vehicle: water
  T/C: 183 % of control and 212 % of control
dose: 25.0 mg/kg/injection, schedule: Q04DX003 (ip), vehicle: water
  T/C: 152 % of control

## COC(=O)c1cc(C2OC3OC(C)(C)OC3C2OC)nn1-c1ccc([N+](=O)[O-])cc1 (stereo not given)
[18]
  T/C: 109 % of control
[19]
  T/C: 100 % of control
[20]
  T/C: 104 % of control

## Nc1nnc(/C=C/c2ccccc2)o1
[15]
  T/C: 117 % of control
[16]
  T/C: 107 % of control
[17]
  T/C: 109 % of control

## OCCOCCN1CCN(C(c2ccccc2)c2ccccc2)CC1
dose: 50.0 mg/kg/injection, schedule: Q01DX009 (ip), vehicle: saline
  T/C: 103 % of control
dose: 100.0 mg/kg/injection, schedule: Q01DX009 (ip), vehicle: saline
  T/C: 103 % of control

## CCOC(=O)C1=C(C(=O)c2ccc(OC)cc2)C(c2ccc([N+](=O)[O-])cc2)C(C(=O)c2ccc(OC)cc2)=C(C(=O)OCC)N1
[15]
  T/C: 89 % of control
[16]
  T/C: 89 % of control
[17]
  T/C: 93 % of control

## COc1ccc(C(C)c2cc3c(cc2OCCO)OCO3)cc1 (stereo not given)
[18]
  T/C: 105 % of control
[19]
  T/C: 102 % of control
[20]
  T/C: 105 % of control
